# Data as given in paper PMC8069832, “New Amides and Phosphoramidates Containing Selenium: Studies on Their Cytotoxicity and Antioxidant Activities in Breast Cancer” (Antioxidants, 2021).
# How the values were obtained:
# BEAS-2B = test: MTT cytotoxicity in nonmalignant bronchial epithelium cells; assay type: cell-based; settings: for GI50 / IC (TGI): Homo sapiens, BEAS-2B, nonmalignant cells, 48 h; for GI50: read-out: GI50 BEAS-2B; for IC (TGI): read-out: TGI BEAS-2B; for Selectivity index (SI) = GI50 (BEAS-2B)/GI50 (HTB-54): lung
# Experimental: (§1) Cell lines were provided by the European Collection of Cell Cultures (ECACC) or by the American Type Culture Collection (ATCC). Seven cell lines were used: MCF-7 (breast adenocarnicoma), 184B5 (nonmalignant, mammary gland derived), CCRF-CEM (lymphoblastic leukemia), HT-29 (colon carcinoma), HTB-54 (lung carcinoma), BEAS-2B (nonmalignant, derived from the bronchial epithelium) and PC-3 (prostate carcinoma). MCF-7, CCRF-CEM, HT-29, HTB-54, BEAS-2B and PC-3 cell lines were grown in RPMI medium (Gibco) supplemented with 10% fetal bovine serum (FBS; Gibco), 100 units/mL penicillin and […] streptomycin (Gibco). 184B5 cells were grown in DMEM/F12 medium supplemented with 5% FBS, 1 × ITS (Lonza), 100 nM hydrocortisone (Aldich), 2 mM sodium pyruvate (Lonza), 20 ng/mL EGF (Sigma-Aldrich), 0.3 nM trans-retinoic acid (Sigma-Aldrich), 100 units/mL penicillin and […] streptomycin. Cells were maintained at 37 °C and 5% CO2.
# (§2) The cytotoxic effect of each substance was tested by the MTT method. Each compound was initially dissolved in DMSO at a concentration of 0.01 M, and serial dilutions were prepared with nonsupplemented medium. The cytotoxic effect of each compound was tested at 50 and 10 µM as a first screening. […]
# (§3) A total of 1 × 10^4 cells/well in 96-well plates were treated with increasing concentrations of the corresponding compounds for 48 h at 37 °C in a humidified atmosphere containing 5% CO2. Then, cells were incubated with 50 µL of MTT (2 mg/mL stock) for 4 h. The medium was then removed by aspiration, and the formazan crystals were dissolved in […] of DMSO. […] Data were obtained from at least 3 independent experiments performed in quadruplicate. The standard error of the means (SEM) for the cytotoxic parameters was calculated applying the standard deviation formula to the mean values of each parameter for the three independent experiments performed.
# (§4) . Cisplatin was used as a standard drug. […]. […] The presence of electron-withdrawing groups (-NO2, -CF3, -Cl) in the phenyl ring favored the cytotoxic activity in the amides, but in the phosphoramidates, the best results were obtained for aliphatic chains methoxy (II.1b, II.2b) and ethoxy (II.1d, II.2d). […].
# (§5) The lack of selectivity toward cancerous cells is one of the major issues during the discovery and development of new anticancer agents. Therefore, we evaluated the cytotoxic activity of our compounds against two cell lines derived from nonmalignant breast tissue (184B5) and no malignant bronchial epithelium (BEAS-2B) (Table 2). […].
# [1] = as above; assay type: cell-based; settings: human; nonmalignant cells, 48 h; read-out: LC50 BEAS-2B
# Experimental: as §1, §2, §3, §4, §5
# MCF-7 = test: cells; settings: Homo sapiens, MCF7, 48 h; for activity at 10 µM: read-out: Cell growth (%) MCF-7; for GI50: read-out: GI50 MCF-7, 48 h, average ± SEM; for CC50: read-out: LC50 MCF-7; for IC (TGI): read-out: TGI MCF-7
# HT-29 = test: cells; settings: Homo sapiens, HT-29, 48 h; for activity at 10 µM: read-out: Cell growth (%) HT-29; for GI50: read-out: GI50 HT-29; for CC50: read-out: LC50 HT-29; for IC (TGI): read-out: TGI HT-29
# CCRF-CEM = test: cells; settings: Homo sapiens, 48 h; for activity at 10 µM: read-out: Cell growth (%) CCRF-CEM; for GI50: read-out: GI50 CCRF-CEM; for CC50: read-out: LC50 CCRF-CEM; for IC (TGI): read-out: TGI CCRF-CEM
# PC-3 = test: cells; assay type: cell-based; settings: Homo sapiens, PC-3, 48 h, average ± SEM; for GI50: read-out: GI50 PC-3; for LC50: read-out: LC50 PC-3; for IC (TGI): read-out: TGI PC-3
# Experimental: as §1, §2, §3, §4
# HTB-54 = test: cells; assay type: cell-based; settings: Homo sapiens, HTB-54, 48 h, average ± SEM; for GI50: read-out: GI50 HTB54; for CC50: read-out: LC50 HTB54; for IC (TGI): read-out: TGI HTB54
# Experimental: as §1, §2, §3, §4
# [2] = MTT cytotoxicity in nonmalignant mammary gland derived cells; assay type: cell-based; settings: human; nonmalignant cells, 48 h; read-out: LC50 184B5
# Experimental: as §1, §2, §3, §4, §5
# 184B5 = test: as above; assay type: cell-based; settings: for GI50 / IC (TGI): Homo sapiens, 184B5, nonmalignant cells, 48 h; for GI50: read-out: GI50 184B5; for IC (TGI): read-out: TGI 184B5; for Selectivity index (SI) = GI50 (184B5)/GI50 (MCF-7): breast
# Experimental: as §1, §2, §3, §4, §5
# [3] = DPPH radical scavenging assay; settings: for DPPH activity inhibition: after 30 min
# Experimental: The DPPH (1,1-diphenyl-2-picrylhydrazyl radical) assay measures the hydrogen donation ability of the antioxidant to convert the stable DPPH free radical into 1,1-diphenyl-2-(2,4,6-trinitrophenyl)-hydrazine. After radical reaction with the compounds, a decrease in the absorbance was detected at 517 nm, which is accompanied by a change of color from violet to light-yellow. The target compounds were dissolved in methanol to make 1 mg/mL stock solutions, which were diluted to five concentrations as test samples. Ascorbic acid was used as a standard, and the experiment was carried out on 96-well plates. The DPPH solution was prepared at a 100 µM concentration. For each test, 100 µL of DPPH solution was added to 100 µL of methanolic solution containing the tested derivatives, and the absorbance was determined at different time points. All the measurements were carried out in triplicate. Results were expressed as the percentage of the radical scavenged, calculated using the following formula:(1) % DPPH radical scavenging=Acontrol − Asample/Acontrol × 100 where Acontrol refers to the absorbance of the negative control, and Asample refers to the absorbance of the tested compounds. Results are expressed as a percentage of DPPH radical scavenged ± SEM.
# . Ascorbic acid and Trolox were used as radical scavenger gold standards. […]. No correlation was found for either structure–radical scavenging activity or antitumor–radical scavenging activity, except for compound I.2f, one of the selected cytotoxic agents. To further confirm this antioxidant activity, three compounds (I.1e, I.1g and I.2i) were also evaluated as DPPH radical scavengers at a lower concentration of 0.003 mg/mL (Figure 3B).
SMILES,GI50 (BEAS-2B) [µM],IC (TGI) (BEAS-2B) [µM],LC50 (50% lethal concentration) [1] [µM],activity at 10 µM (MCF-7) [%],GI50 (MCF-7) [µM],CC50 (MCF-7) [µM],IC (TGI) (MCF-7) [µM],activity at 10 µM (HT-29) [%],GI50 (HT-29) [µM],CC50 (HT-29) [µM],IC (TGI) (HT-29) [µM],activity at 10 µM (CCRF-CEM) [%],GI50 (CCRF-CEM) [µM],CC50 (CCRF-CEM) [µM],IC (TGI) (CCRF-CEM) [µM],GI50 (PC-3) [µM],LC50 (PC-3) [µM],IC (TGI) (PC-3) [µM],GI50 (HTB-54) [µM],CC50 (HTB-54) [µM],further results
N#C[Se]c1ccc(NC(=O)c2ccco2)cc1 [I.2h],8.47,67.3,> 100,41.6,7.4 ± 1.9,94.9 ± 4.7,50.4 ± 1.3,46.7,42.7 ± 1.2,> 100,> 100,47.1,21.8 ± 3.1,> 100,> 100,> 100,> 100,> 100,> 100,> 100,IC (TGI) (HTB-54): > 100 µM; LC50 (50% lethal concentration) [2]: > 100 µM; GI50 (184B5): 36.1 µM; IC (TGI) (184B5): > 100 µM; Selectivity index (SI) = GI50 (184B5)/GI50 (MCF-7) (184B5): 5.66
N#C[Se]c1ccc(NC(=O)c2cccs2)cc1 [I.2i],,,,74.5,,,,85.3,,,,43.6,,,,,,,,,"DPPH radical scavenging activity ([3]; 0.003 mg/mL): some moderate effect was observed; DPPH radical scavenging activity ([3]; 0.03 mg/mL, 0-120 min): the most active radical scavenger; DPPH activity inhibition ([3]; 0.03 mg/mL): greater than 35%"
N#C[Se]c1ccc(NC(=O)c2ccno2)cc1 [I.2j],,,,91,,,,90.8,,,,48.4,,,,,,,,,DPPH activity inhibition ([3]; 0.03 mg/mL): greater than 35%
COP(=O)(Nc1ccc([Se][Se]c2ccc(NP(=O)(OC)OC)cc2)cc1)OC [II.1b],6.48,41.3,> 100,-13.9,4.3 ± 0.6,56.9 ± 5.4,8.8 ± 0.1,70.7,20 ± 3.1,74.9 ± 0.6,47.4 ± 2,-74.1,2 ± 0.1,8 ± 2.8,3.9 ± 0.4,17.1 ± 1.7,76.6 ± 2.5,46.9 ± 2.3,7.2 ± 3.2,76 ± 4.2,Selectivity index (SI) = GI50 (BEAS-2B)/GI50 (HTB-54) (BEAS-2B): 0.84; IC (TGI) (HTB-54): 37.1 ± 3.2 µM; CC50 [2]: 8.65 µM; GI50 (184B5): 5.75 µM; IC (TGI) (184B5): 7.2 µM; Selectivity index (SI) = GI50 (184B5)/GI50 (MCF-7) (184B5): 1.36
CCOP(=O)(Nc1ccc([Se][Se]c2ccc(NP(=O)(OCC)OCC)cc2)cc1)OCC [II.1d],5.43,6.98,8.54,-57.5,2.3 ± 0.2,8.8 ± 0.8,4.2 ± 0.3,-69.8,1.7 ± 0.1,4.3 ± 0.1,3 ± 0.1,-86.7,0.4 ± 0.2,3.4 ± 0.2,1.7 ± 0.2,6.4 ± 0.2,35.1 ± 4.9,8.6 ± 0.2,5.9 ± 0.3,9.4 ± 0.1,Selectivity index (SI) = GI50 (BEAS-2B)/GI50 (HTB-54) (BEAS-2B): 0.92; IC (TGI) (HTB-54): 7.7 ± 0.2 µM; CC50 [2]: 8.58 µM; GI50 (184B5): 5.45 µM; IC (TGI) (184B5): 7.01 µM; Selectivity index (SI) = GI50 (184B5)/GI50 (MCF-7) (184B5): 2.38
